Test results taken from ChEMBL document CHEMBL2384942, “Modulation of acridine mutagen ICR191 intercalation to DNA by methylxanthines--analysis with mathematical models” (Bioorg Med Chem, 2013).
The source made the active and inactive calls. The calls are words filed in the database; no cut-off is given here.

Legend:
Salmonella typhimurium [1] = experiment: Mutagenic activity in Salmonella typhimurium TA98 at 0.1 ug/plate after 4 hrs by Ames test; type: toxicity, organism-based; details: salmonella enterica subsp. enterica serovar typhimurium
MDBK [2] = experiment: Binding affinity to ICR191 in MDBK cells assessed as decrease in molar fraction of free mutagen at 1 to 12 mM by spectrophotometric analysis; type: cell-based
MDBK [3] = experiment: Binding affinity to ICR191 in MDBK cells assessed as decrease in formation of mutagen-chromatin complex at 1 to 12 mM by spectrophotometric analysis; type: cell-based
Salmonella typhimurium [4] = experiment: Protective effect in Salmonella typhimurium TA98 assessed as decrease in ICR191-induced mutagenic effect at 0.05 to 2000 ug/plate after 4 hrs by Ames test; type: functional, organism-based; details: Salmonella enterica subsp. enterica serovar Typhimurium
Salmonella typhimurium [5] = experiment: Mutagenic activity in Salmonella typhimurium TA98 at 2 mg/plate after 4 hrs by Ames test; type: toxicity, organism-based; details: salmonella enterica subsp. enterica serovar typhimurium

## COc1ccc2nc3cc(Cl)ccc3c(NCCCNCCCl)c2c1.Cl.Cl.Cl.Cl
Salmonella typhimurium [1]
  Activity: Non-toxic

## Cn1c(=O)c2c(ncn2C)n(C)c1=O
MDBK [2]
  Activity: Active
MDBK [3]
  Activity: Active

## CC(=O)CCCCn1c(=O)c2c(ncn2C)n(C)c1=O [PENTOXIFYLLINE]
Salmonella typhimurium [4]
  Activity: Active
Salmonella typhimurium [5]
  Activity: Non-toxic
